The text below walks through data of patent US20190106454A1, “COMPOUNDS LINKED WITH A SACCHARIDE METAL COMPLEX AND USES THEREOF” (FRED HUTCHINSON CANCER RESEARCH CENTER, priority 2016, published 2019).

Entries after “also recorded” stand apart in the source; their conditions may differ.

In one series the test system is haptoglobin. As to the kind of experiment: Induction of haptoglobin mRNA and protein in renal cortex and plasma. In kind it is in vivo, mice. Particulars: 1 umole; for renal cortical haptoglobin mRNA induction: 4 hrs post injection, RT-PCR (FIG. 11). How it is done:
MesP up-regulates Nrf2 sensitive genes. Mice are injected MesP (0.1-2.5 umoles/mouse) or with a MesP vehicle. At either 4 or 18 hrs, the mice are deeply anesthetized with pentobarbital and the kidneys are removed through a midline abdominal incision. The renal cortices are dissected on ice, extracted for protein and mRNA, and assayed for HO-1 and haptoglobin protein and mRNA levels by ELISA and competitive RT-PCR, respectively. In this regard, both HO-1 and haptoglobin are Nrf2 sensitive genes. An increase in HO-1 and haptoglobin mRNA and protein levels at 4 hrs and 18 hrs post MesP administration, respectively, is measured to confirm MesP, like SnPP, induces Nrf2 signaling.

Series [1] has as its system heme oxygenase 1 (HO-1). As to the kind of experiment: Induction of HO-1 mRNA (RT-PCR) and protein (ELISA) in renal cortex and plasma. In kind it is in vivo, mice. Particulars: for renal cortical HO-1 mRNA induction / increase in renal cortical HO-1 levels over baseline: 1 umole; for renal cortical HO-1 mRNA induction: RT-PCR (FIG. 11); for renal cortical HO-1 protein levels / increase in renal cortical HO-1 levels over baseline: ELISA. The source says:
(§1) Methods. Male CD-1 mice (25-40 grams) Charles River, Wilmington, Mass.) were used for all experiments. They were housed under standard vivarium conditions with free food and water access. All experiments were approved by the Fred Hutchinson Cancer Research Center IACUC in accordance with NIH guidelines.
Effects of FeS, SnPP, and B12 on renal cortical induction of heme oxygenase 1 (HO-1). The following experiments assessed the effects of FeS, SnPP, and B12 on the possible induction of the cytoprotective protein HO-1. To this end, mice were injected with each of these agents, as noted above. Either 4 or 18 hrs later, they were anesthetized and the kidneys were removed through a midline abdominal incision. The renal cortices were dissected on ice and then extracted for protein and mRNA. The samples were then assayed for HO-1 protein by ELISA, and HO-1 mRNA by RT-PCR, factored by GAPDH levels. Five normal mice provided control values. […]
(ELISA stands for enzyme-linked immunosorbent assay.)

The test system of the next series is Ferritin heavy (Fhc). Briefly: Ferritin heavy chain Western blotting of renal cortex. The format is in vivo, mice. Particulars: 18 hr post treatment, Western blot band densitometry. How it is done:
Ferritin heavy (Fhc) expression in renal cortex. HO-1 activity leads to increased Fhc expression. […] Because Fe sucrose also induces Fhc expression, the potential impact of SnPP treatment on this response was assessed (18 hrs post 1 mg FeS±concomitant SnPP treatment (n, 4 each)).
In general terms: Immunoblotting shows a protein as a band on a membrane.

Series [2] has as its system maleate-induced AKI in mice. Briefly: Maleate model of AKI. In kind it is in vivo. The note with it: IV pre-treatment 18 hrs before IP Na maleate 800 mg/Kg, read 18 hrs post maleate.
From the text: as §1
Effects of Fe sucrose (FeS)/tin protoporphyrin (SnPP) on AKI severity. Maleate model of AKI. When injected into rodents, maleate undergoes relatively selective proximal tubule cell uptake via organic anion transporters. Once intracellular accumulation occurs, maleate is a preferred substrate for succinyl-CoA:3-oxoacid CoA transferase. […] Ample levels of CoA are essential for fatty acid “activation”, allowing for their subsequent metabolism through the Krebs cycle, yielding ATP. In the absence of this process, proximal tubule ATP depletion and cell injury result. Additionally, maleate conjugates the sulfhydryl group of glutathione (GSH), culminating in GSH depletion and potential oxidant tubular stress.
The following experiment tested whether FeS, SnPP or combined FeS+SnPP can mitigate this form of acute kidney injury (AKI). Twenty seven mice were subjected to 200 μL IV tail injections of one of the following: 1) vehicle (phosphate buffered saline, PBS; n, 10); 2) 1 mg FeS (American Regent (Shirley, N.Y.; n, 3); 3) 1 μmole SnPP (Frontier Scientific, Logan, Utah; n 7), or FeS+SnPP, n, 7). Eighteen hrs later, all mice received an IP injection of Na maleate (800 mg/Kg; in 500 ul of PBS). Eighteen hrs later, the mice were deeply anesthetized with pentobarbital (50 mg/Kg IP), the abdominal cavities were opened, and blood samples were obtained from the abdominal vena cava. The severity of kidney injury was assessed by determining plasma blood urea nitrogen (BUN) and plasma creatinine (PCr) concentrations.
Maleate model of AKI. Mice received tail vein injections of either combination of FeS+B12 or vehicle (n, 6 per group). Eighteen hrs later they received IP maleate injections, as noted above. The severity of AKI was determined 18 hrs post maleate injection by terminal BUN and PCr assessments.

In another series the test system is renal injury in rats. The note with it: cited from earlier work.
The subject of series [3] is kidney dysfunction in glycerol model rhabdomyolysis. Particulars: blocking HO with competitive inhibitor; cited from earlier work.
Series [4] concerns heme oxygenase 1 (HO-1). As to the kind of experiment: Induction of HO-1 mRNA (RT-PCR) and protein (ELISA) in renal cortex and plasma. In kind it is in vivo, mice. The note with it: 1 umole, 18 hrs post injection.
For series [5], the system named is renal ischemia-reperfusion (IRI) induced AKI in mice. As to the kind of experiment: Renal ischemic-reperfusion injury (IRI) model of AKI. The format is in vivo. Particulars: 1 umole 18 hrs before 22 min bilateral ischemic injury. The protocol: as §1
Renal ischemic—reperfusion injury (IRI) model of AKI. The following experiment assessed whether combination FeS+SnPP can mitigate the renal artery occlusion model of AKI. Mice received 200 μl tail vein injections of either PBS (n, 9) or FeS+SnPP (n, 8), as noted above. Eighteen hrs later, the mice were deeply anesthetized with pentobarbital (40-50 mg/Kg IP), the abdominal cavities were opened, the renal pedicles were identified and both were occluded with microvascular clamps. Body temperature was maintained at 36-37° C. throughout. Following 22 minutes of bilateral renal ischemia, the clamps were removed, uniform reperfusion was visually confirmed by the reappearance of a normal renal color (loss of tissue cyanosis), and then the abdominal cavities were closed in two layers with silk suture. […] The severity of renal injury was determined by BUN and PCr concentrations.
Protection against acute kidney injury. […] AKI severity are determined by degrees of BUN and plasma creatinine increases.

For the compound `C=Cc1c2[n-]c(c1C)/C=c1\[n-]/c(c(C)c1C=C)=C\c1[n-]c(c(CCC(=O)O)c1C)/C=c1\[n-]c(c(C)c1CCC(=O)O)=C2.[Sn+4]` [SnPP, tin protoporphyrin], the “renal cortical haptoglobin mRNA induction” value in the series with haptoglobin is “raised”. Moreover, in the series on heme oxygenase 1 (HO-1) [1] (4 hrs post injection), the “renal cortical HO-1 mRNA induction” value is recorded as “raised”. The “increase in Fhc expression over control values” in the series on Ferritin heavy (Fhc) is reported as 24%. Also, the “severity of renal injury (BUN and PCr)” value in series [2] is reported as “Neither SnPP alone nor FeS alone significantly altered the severity of renal injury”. For the same compound, the “severity of renal injury (BUN and PCr)” value in series [2] (listed as Sn-protoporphyrin) is “Neither Sn-protoporphyrin alone nor iron-sucrose alone significantly altered the severity of renal injury”. Also, in the series on renal injury in rats (day 2 after cisplatin, rats), the “fractional excretion of sodium” value is on record as “increased”, the “renal blood flow rates” value is given as “reduced” and the renal vascular resistance entry is “increased”. Also, the inulin clearances result in the series with renal injury in rats (day 5) is given as “lower”. Further, in the series with renal injury in rats (days 3 through 5), the serum creatinine values entry was “higher”. For the same compound, in the series with renal injury in rats (pretreatment), the renal injury entry was “exacerbated renal injury”. Moreover, the kidney dysfunction result in series [3] is “exacerbated kidney dysfunction”.
cyanocobalamin [B12]: the results for the “renal cortical HO-1 protein levels” value in the series with heme oxygenase 1 (HO-1) [1] (4 hrs post IV injection) and in the series with heme oxygenase 1 (HO-1) [1] (18 hrs post IV injection) were “marked HO-1 protein increases” and “persists”, respectively.
With Fe sucrose [FeS], the “renal cortical HO-1 protein levels” value is on record as “marked HO-1 protein increases” with heme oxygenase 1 (HO-1) [1] (4 hrs post IV injection); “remained elevated” in the series on heme oxygenase 1 (HO-1) [1] (18 hrs post IV injection); “persists; also recorded: remained elevated” in the series with heme oxygenase 1 (HO-1) [1] (18 hrs post IV injection, listed as iron-sucrose). For the same compound, the “increase in Fhc expression over control values” in the series with Ferritin heavy (Fhc) is 1-4%. Also, the “severity of renal injury (BUN and PCr)” value in series [2] is “Neither SnPP alone nor FeS alone significantly altered the severity of renal injury”; in series [2] (listed as iron-sucrose) it was “Neither Sn-protoporphyrin alone nor iron-sucrose alone significantly altered the severity of renal injury”.
As to tin mesoporphyrin [SnMeP], in the series on haptoglobin (4 and 18 hrs post injection), the plasma haptoglobin levels result is given as “stepwise increases” and the “renal cortical haptoglobin levels” value is on record as “stepwise increases”. Moreover, in the series on haptoglobin, the “renal cortical haptoglobin mRNA induction” value is reported as “raised”. For the same compound, in the series on heme oxygenase 1 (HO-1) [1] (4 hrs post injection), the “increase in renal cortical HO-1 levels over baseline” value is listed as 3 fold and the “renal cortical HO-1 mRNA induction” value was “raised”. Further, the “increase in renal cortical HO-1 levels over baseline” value in the series on heme oxygenase 1 (HO-1) [1] (18 hrs post injection) was 5 fold. Also, the “rise in plasma HO-1 levels” value with heme oxygenase 1 (HO-1) [4] stood at 15 fold. Also, the “ischemic damage (BUN and plasma creatinine concentrations)” value in series [5] is on record as “lessening of ischemic damage”.
